Columns and labels:
[1] = biological target: T1, PI3Kα (p110α/p85α) (Homo sapiens, UniProt P42336); assay: PI3Kα ADP-Glo assay; type: biochemical; details: 20 μM PIP2, 10 μM ATP, 30 minutes
T1 construct: GST (N); made in house; host or cells: Baculovirus-infected Sf9 cells
Procedure, shortened: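 Recombinant full-length human GST-p110α/His-p85α, co-expressed in Sf9 cells, was incubated 30 min at room temperature with 20 μM PIP2 and 10 μM ATP. The buffer was 50 mM HEPES pH 7.4, 150 mM NaCl, 5 mM MgCl2, 1 mM DTT, 3 µM orthovanadate and 0.5% DMSO. ADP formed was detected by ADP-Glo luminescence.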

[2] = tested on: HDACs (HeLa cell nuclear extracts); assay: HDAC enzymatic activity, Biomol Color de Lys system; type: biochemical; details: 1 hour, 25° C.
Procedure, shortened: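 HeLa nuclear extract incubated with serially diluted compound and […] artificial substrate in 50 mM Tris/Cl pH 8.0, 137 mM NaCl, 2.7 mM KCl, 1 mM MgCl2. Run 1 h at 25 °C, stopped with developer. Fluorescence read (ex 350-380, em 440-460 nm); IC50 from sigmoidal dose-response fit.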

[3] = tested on: H292; assay: Cell proliferation assay (CellTiter-Glo); type: cell-based; details: Homo sapiens, NCI-H292; NSCLC; 72 hours, 0.5% fetal bovine serum; read-out: antiproliferative activity IC50, H292
Method: (§1) Cell Proliferation Assay:
(§2) Cancer cell lines were plated at 5,000 to 10,000 per well in 96-well flat bottomed plates with various concentration of compounds. The cells were incubated with compounds for 72 hours in the presence of 0.5% of fetal bovine serum. Growth inhibition was accessed by adenosine triphosphate (ATP) content assay using Promega CellTiter-Glo kit. Promega CellTiter-Glo kit is an ATP monitoring system based on firefly luciferase. Briefly, 16 μl of mammalian cell lysis and substrate solution was added to 84 μl of culture medium per well to lyse the cells and stabilize the ATP. The mixture was shaken and incubated for 30 minutes and subsequently the luminescence was measured.

[4] = tested on: H460; assay: Cell proliferation assay (CellTiter-Glo); type: cell-based; details: Homo sapiens, NCI-H460; NSCLC; 72 hours, 0.5% fetal bovine serum; read-out: antiproliferative activity IC50, H460
Method: as §1, §2

[5] = tested on: WiDr; assay: Cell proliferation assay (CellTiter-Glo); type: cell-based; details: Homo sapiens, Colon, 72 hours, 0.5% fetal bovine serum, read-out: antiproliferative activity IC50, WiDr
Method: as §1, §2

[6] = tested on: H358; assay: Cell proliferation assay (CellTiter-Glo); type: cell-based; details: Homo sapiens, NCI-H358; NSCLC; 72 hours, 0.5% fetal bovine serum; read-out: antiproliferative activity IC50, H358
Method: as §1, §2

[7] = tested on: HCT116; assay: Cell proliferation assay (CellTiter-Glo); type: cell-based; details: Homo sapiens, HCT-116; Colon; 72 hours, 0.5% fetal bovine serum; read-out: antiproliferative activity IC50, HCT116
Method: as §1, §2

[8] = tested on: MiaPaca1; assay: Cell proliferation assay (CellTiter-Glo); type: cell-based; details: Pancreas; 72 hours, 0.5% fetal bovine serum; read-out: antiproliferative activity IC50, MiaPaca1
Method: as §1, §2

[9] = tested on: A549; assay: Cell proliferation assay (CellTiter-Glo); type: cell-based; details: Homo sapiens, NSCLC, 72 hours, 0.5% fetal bovine serum, read-out: antiproliferative activity IC50, A549
Method: as §1, §2

[10] = tested on: H2122; assay: Cell proliferation assay (CellTiter-Glo); type: cell-based; details: Homo sapiens, NCI-H2122; NSCLC; 72 hours, 0.5% fetal bovine serum; read-out: antiproliferative activity IC50, H2122
Method: as §1, §2

[11] = biological target: T2, mTor serine/threonine protein kinase (Homo sapiens, UniProt P42345); assay: mTor kinase radioisotope assay; type: biochemical; details: 70 uM ATP, 40 minutes; read-out: m-TOR IC50
T2 construct: FLAG; made in house; host or cells: Baculovirus expression system in Sf21 cells
Method: (F) an In Vitro Assay which-Determines the Ability of a Test Compound to Inhibit mTor Serine/Threonine Protein Kinase.
The ability of compounds to inhibit mTor activity was assayed using standard radioisotope assay for kinase. Briefly, FLAG-tagged, recombinant full-length human mTor (GenBank accession No. NM_004958) was expressed using baculovirus expression system in Sf21 cells and purified using antibody affinity column. Purified enzyme was incubated with c-terminal fragment of p70S6K as it's substrate in the presence of ATP. p33 ATP tracers were included in the assay to monitor the enzyme activity. Final assay condition was with 50 mM HEPES pH 7.5, 1 mM EGTA, 0.01% Tween 20, 2 mg/ml substrate, 3 mM Manganese Chloride and 70 uM of ATP and was carried out at room temperature for 40 minutes. The reaction was then stopped by the addition of 3% phosphoric acid solution. 10 ul of the reaction was spotted onto a P30 filtermat and washed three times for 5 minutes in 75 mM phosphoric acid and once in methanol prior to drying and scintillation counting. Different concentrations of compounds were added to reaction to assess the activity of compounds to inhibit mTor kinase. IC50 was calculated using Prism software with sigmoidal dose-response curve fitting.

[12] = tested on: OPM-2; assay: Cell proliferation assay (CellTiter-Glo); type: cell-based; details: Homo sapiens, Multiple Myeloma, 72 hours, 0.5% fetal bovine serum, read-out: antiproliferative activity IC50, OPM-2
Method: as §1, §2

[13] = tested on: Calu6; assay: Cell proliferation assay (CellTiter-Glo); type: cell-based; details: Homo sapiens, Calu-6; NSCLC; 72 hours, 0.5% fetal bovine serum; read-out: antiproliferative activity IC50, Calu6
Method: as §1, §2

[14] = biological target: T3, PI3Kβ (p110β/p85α) (Homo sapiens, UniProt P42338); assay: PI3Kβ ADP-Glo assay; type: biochemical; details: 20 μM PIP2, 10 μM ATP, 90 minutes
T3 construct: His (N); made in house; host or cells: Baculovirus-infected Sf9 cells
T3 sequence (P42338 whole entry): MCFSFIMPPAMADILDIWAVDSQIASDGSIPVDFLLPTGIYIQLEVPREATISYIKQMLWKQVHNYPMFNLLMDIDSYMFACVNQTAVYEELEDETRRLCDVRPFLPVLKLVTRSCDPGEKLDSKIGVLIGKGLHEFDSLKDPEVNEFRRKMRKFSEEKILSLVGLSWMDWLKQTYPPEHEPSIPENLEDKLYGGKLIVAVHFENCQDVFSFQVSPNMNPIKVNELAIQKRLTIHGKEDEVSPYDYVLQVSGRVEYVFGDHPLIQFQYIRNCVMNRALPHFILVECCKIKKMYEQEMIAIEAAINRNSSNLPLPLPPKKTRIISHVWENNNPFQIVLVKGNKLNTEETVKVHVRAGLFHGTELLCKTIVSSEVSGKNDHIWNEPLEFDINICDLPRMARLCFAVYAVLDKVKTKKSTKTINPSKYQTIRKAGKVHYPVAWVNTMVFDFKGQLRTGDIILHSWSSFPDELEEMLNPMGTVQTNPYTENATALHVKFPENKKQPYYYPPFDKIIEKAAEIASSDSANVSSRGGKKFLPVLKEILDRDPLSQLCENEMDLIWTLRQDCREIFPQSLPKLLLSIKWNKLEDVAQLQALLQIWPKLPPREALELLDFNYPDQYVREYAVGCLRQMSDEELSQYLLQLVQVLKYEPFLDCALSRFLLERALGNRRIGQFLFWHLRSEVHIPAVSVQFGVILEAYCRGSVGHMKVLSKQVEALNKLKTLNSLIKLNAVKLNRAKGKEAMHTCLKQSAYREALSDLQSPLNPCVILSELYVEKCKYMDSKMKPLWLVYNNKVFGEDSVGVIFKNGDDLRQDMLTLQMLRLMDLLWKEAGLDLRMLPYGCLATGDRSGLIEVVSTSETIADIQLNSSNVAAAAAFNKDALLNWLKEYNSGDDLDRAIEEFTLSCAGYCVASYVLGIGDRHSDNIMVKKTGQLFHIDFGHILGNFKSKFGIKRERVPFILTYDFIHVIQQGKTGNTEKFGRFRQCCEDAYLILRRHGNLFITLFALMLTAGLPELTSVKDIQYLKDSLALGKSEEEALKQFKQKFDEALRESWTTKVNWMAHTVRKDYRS
T3 sequence (P27986 whole entry partner): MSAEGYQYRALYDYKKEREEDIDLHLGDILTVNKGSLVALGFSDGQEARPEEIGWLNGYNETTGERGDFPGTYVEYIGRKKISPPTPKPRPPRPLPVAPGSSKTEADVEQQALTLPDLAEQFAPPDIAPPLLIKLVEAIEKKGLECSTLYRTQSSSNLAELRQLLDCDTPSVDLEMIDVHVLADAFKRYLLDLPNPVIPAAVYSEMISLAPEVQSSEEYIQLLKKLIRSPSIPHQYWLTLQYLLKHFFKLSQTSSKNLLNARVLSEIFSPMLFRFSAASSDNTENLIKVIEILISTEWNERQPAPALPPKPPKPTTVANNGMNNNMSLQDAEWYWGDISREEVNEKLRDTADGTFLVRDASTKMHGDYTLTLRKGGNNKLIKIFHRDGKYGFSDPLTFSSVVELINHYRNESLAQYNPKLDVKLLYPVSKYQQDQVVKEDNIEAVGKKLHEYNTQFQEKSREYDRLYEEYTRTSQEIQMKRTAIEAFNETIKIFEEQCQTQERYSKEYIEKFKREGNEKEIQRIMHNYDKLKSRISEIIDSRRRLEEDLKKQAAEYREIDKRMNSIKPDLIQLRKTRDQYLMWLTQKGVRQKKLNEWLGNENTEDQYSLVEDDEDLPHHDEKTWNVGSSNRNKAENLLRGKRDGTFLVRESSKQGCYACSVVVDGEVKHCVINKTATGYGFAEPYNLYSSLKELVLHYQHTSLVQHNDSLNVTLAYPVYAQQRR
Method: (B) an In Vitro Assay which Determines the Ability of a Test Compound to Inhibit PI3Kβ.
Activity of PI3Kβ was measured using ADP-Glo assay from Promega. […], a complex of N-terminal His-tagged recombinant full-length human p110β (GenBank, Accession No. NM_006219) and untagged recombinant full length human p85α (GenBank Accession No. XM—043865) were co-expressed in a Baculovirus infected Sf9 cell expression system. The ADP-Glo assay was performed to measure the amount of ADP generated from ATP hydrolysis coupled with PIP2 phosphorylation by the purified recombinant PI3Kβ (p110β/p85α). PI3Kβ was incubated with 20 μM PIP2 substrate in the reaction buffer (10 mM Tris-HCl, pH 7.5, 50 mM NaCl, 5 mM MgCl2, 10 μM ATP and 0.5% DMSO) for 90 minutes at room temperature. The ADP generated was then detected by ADP-Glo assay from Promega, a luminescent ADP detection assay. The ADP-Glo assay is performed in two steps; first, after the kinase reaction, ADP-Glo Reagent is added to terminate the kinase reaction and deplete the remaining ATP. Second, the Kinase Detection Reagent is added to simultaneously convert ADP to ATP and allow the newly synthesized ATP to be measured using a luciferase/luciferin reaction.

T1 sequence (P42336 whole entry): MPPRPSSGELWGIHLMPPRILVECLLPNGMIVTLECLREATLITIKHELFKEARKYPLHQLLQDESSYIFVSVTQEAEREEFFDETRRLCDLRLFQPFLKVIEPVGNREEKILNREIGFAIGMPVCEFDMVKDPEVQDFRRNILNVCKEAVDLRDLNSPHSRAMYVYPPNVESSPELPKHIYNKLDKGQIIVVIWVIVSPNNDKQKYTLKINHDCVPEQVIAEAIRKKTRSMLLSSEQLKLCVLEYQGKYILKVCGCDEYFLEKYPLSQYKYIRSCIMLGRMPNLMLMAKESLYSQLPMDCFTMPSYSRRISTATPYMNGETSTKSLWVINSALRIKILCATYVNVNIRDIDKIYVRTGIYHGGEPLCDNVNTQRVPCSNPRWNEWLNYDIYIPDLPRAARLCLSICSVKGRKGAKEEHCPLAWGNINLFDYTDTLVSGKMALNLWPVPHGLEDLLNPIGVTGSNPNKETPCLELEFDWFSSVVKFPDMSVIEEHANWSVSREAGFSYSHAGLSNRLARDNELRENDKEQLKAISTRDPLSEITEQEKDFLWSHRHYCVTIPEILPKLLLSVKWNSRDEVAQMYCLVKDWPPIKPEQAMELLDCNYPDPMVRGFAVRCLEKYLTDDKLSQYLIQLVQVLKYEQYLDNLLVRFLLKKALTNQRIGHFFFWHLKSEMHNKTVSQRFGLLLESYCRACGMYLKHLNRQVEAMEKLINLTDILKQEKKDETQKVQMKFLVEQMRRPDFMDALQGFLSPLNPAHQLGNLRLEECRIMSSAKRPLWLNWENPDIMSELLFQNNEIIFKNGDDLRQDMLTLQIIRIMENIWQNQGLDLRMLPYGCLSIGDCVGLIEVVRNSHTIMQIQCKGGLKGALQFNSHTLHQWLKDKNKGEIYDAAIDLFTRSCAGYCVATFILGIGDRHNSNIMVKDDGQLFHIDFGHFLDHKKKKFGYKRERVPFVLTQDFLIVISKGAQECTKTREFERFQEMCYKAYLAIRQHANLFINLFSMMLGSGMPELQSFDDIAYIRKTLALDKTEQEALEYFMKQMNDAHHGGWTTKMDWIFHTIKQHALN
T1 sequence (P27986 whole entry partner): as the sequence (P27986 whole entry partner) above

IC50 [1] | IC50 [2] | IC50 [3] | IC50 [4] | IC50 [6] | IC50 [7] | IC50 [8] | IC50 [9] | IC50 [10] | melting point | IC50 [11] | IC50 [13] | IC50 [14] | Compound | IC50 [5] | IC50 [12]
< 100 nM | < 100 nM | 100 to 1000 nM | 100 to 1000 nM | 100 to 1000 nM | 100 to 1000 nM | 100 to 1000 nM | 100 to 1000 nM | 100 to 1000 nM | 215 to 218 °C |  |  |  | CNc1ccc(-c2nc(N3CCOCC3)c3sc(C(=O)NCC4CCN(c5ncc(C(=O)NO)cn5)CC4)cc3n2)cn1 [Compound 308, N-((1-(5-(Hydroxycarbamoyl)pyrimidin-2-yl)piperidin-4-yl)methyl)-2-(6-(methylamino)pyridin-3-yl)-4-morpholinothieno[3,2-d]pyrimidine-6-carboxamide] | 100 to 1000 nM | 
< 100 nM | < 100 nM | 10 to 100 nM | 10 to 100 nM | < 10 nM | < 10 nM | < 10 nM | 10 to 100 nM | < 10 nM |  | 100 to 1000 nM |  |  | CC(O)c1cccc(-c2nc(N3CCOCC3)c3sc(CN(C)c4ncc(C(=O)NO)cn4)cc3n2)c1 (centres unmarked) [Compound 294, N-Hydroxy-2-(((2-(3-(1-hydroxyethyl)phenyl)-4-morpholinothieno[3,2-d]pyrimidin-6-yl)methyl)(methyl)amino)pyrimidine-5-carboxamide] | 10 to 100 nM | 
< 100 nM | < 100 nM |  |  |  |  |  |  |  | 175 to 181 °C | < 100 nM | 10 to 100 nM |  | CN(Cc1cc2nc(-c3ccc(N)nc3)nc(N3CCOCC3)c2s1)c1ncc(C(=O)NO)cn1 [Compound 110, 2-(((2-(6-aminopyridin-3-yl)-4-morpholinothieno[3,2-d]pyrimidin-6-yl)methyl)(methyl)amino)-N-hydroxypyrimidine-5-carboxamide] | 10 to 100 nM | < 10 nM
< 100 nM | < 100 nM |  |  |  |  |  | 10 to 100 nM |  | 175 to 181 °C | < 100 nM | 10 to 100 nM |  | CN(Cc1cc2nc(-c3cnc(N)nc3)nc(N3CCOCC3)c2s1)c1ncc(C(=O)NO)cn1 [Compound 115, 2-(((2-(2-aminopyrimidin-5-yl)-4-morpholinothieno[3,2-d]pyrimidin-6-yl)methyl)(methyl)amino)-N-hydroxypyrimidine-5-carboxamide] | 100 to 1000 nM | 10 to 100 nM
< 100 nM | < 100 nM |  |  |  |  |  |  |  | 190 to 194 °C |  |  | < 100 nM | O=C(NO)c1cnc(N(CCO)Cc2cc3nc(-c4cccc5[nH]ncc45)nc(N4CCOCC4)c3s2)nc1 [Compound 86, 2-(((2-(1H-indazol-4-yl)-4-morpholinothieno[3,2-d]pyrimidin-6-yl)methyl)(2-hydroxyethyl)amino)-N-hydroxypyrimidine-5-carboxamide] |  | 
< 100 nM | < 100 nM | < 10 nM | 10 to 100 nM | < 10 nM | < 10 nM | < 10 nM | 10 to 100 nM | < 10 nM | 148 to 152 °C |  |  |  | CN(Cc1cc2nc(-c3cccc(OCCO)c3)nc(N3CCOCC3)c2s1)c1ncc(C(=O)NO)cn1 [Compound 289, 2-({2-[3-(2-Hydroxy-ethoxy)-phenyl]-4-morpholin-4-yl-thieno[3,2-d]pyrimidin-6-ylmethyl}-methyl-amino)-pyrimidine-5-carboxylic acid hydroxyamide] | < 10 nM | 
< 100 nM | < 100 nM |  | 10 to 100 nM | < 10 nM | < 10 nM | 10 to 100 nM | 10 to 100 nM | < 10 nM | 179 to 183 °C |  |  |  | CN(Cc1cc2nc(-c3ccc(N)cc3Cl)nc(N3CCOCC3)c2s1)c1ncc(C(=O)NO)cn1 [Compound 284, 2-(((2-(4-Amino-2-chlorophenyl)-4-morpholinothieno[3,2-d]pyrimidin-6-yl)methyl)(methyl)amino)-N-hydroxypyrimidine-5-carboxamide] | 10 to 100 nM | 
< 100 nM | < 100 nM |  | 10 to 100 nM | 10 to 100 nM | 10 to 100 nM | 10 to 100 nM | 100 to 1000 nM | 10 to 100 nM | 250 to 255 °C | < 100 nM |  |  | CN(Cc1cc2nc(-c3cc(O)ccc3F)nc(N3CCOCC3)c2s1)c1ncc(C(=O)NO)cn1 [Compound 292, 2-(((2-(2-Fluoro-5-hydroxyphenyl)-4-morpholinothieno[3,2-d]pyrimidin-6-yl)methyl)(methyl)amino)-N-hydroxypyrimidine-5-carboxamide] | 10 to 100 nM | 
100 to 1000 nM | < 100 nM | 10 to 100 nM | 10 to 100 nM | 10 to 100 nM | < 10 nM | 10 to 100 nM | 10 to 100 nM | 10 to 100 nM | 168 to 172 °C | > 10000 nM | 10 to 100 nM |  | C[C@H](O)c1cccc(-c2nc(N3CCOCC3)c3sc(CN(C)c4ncc(C(=O)NO)cn4)cc3n2)c1 [Compound 296, (S)—N-Hydroxy-2-(((2-(3-(1-hydroxyethyl)phenyl)-4-morpholinothieno[3,2-d]pyrimidin-6-yl)methyl)(methyl)amino)pyrimidine-5-carboxamide] | < 10 nM | 

— patent US20130102595A1 (Curis, Inc., priority 2011, published 2013)
